Source: US20070112018A1, “Treatment of peripheral arterial occlusive disease” (priority 2005, published 2007)

Key:
[1] = in vivo; cited from earlier work
C. pneumoniae [2] = assay: Rabbit model of atherosclerosis accelerated by C. pneumoniae infection, cholesterol diet; conditions: C. pneumoniae-infected rabbits; rifalazil 5 mg/kg or azithromycin 30 mg/kg PO daily 1 week then twice weekly 6 weeks; 19 weeks after beginning treatment
Procedure: Thirty received three separate C. pneumoniae inoculations performed at 3-week intervals. Similarly, 15 control rabbits were intranasally inoculated with 1 mL of normal saline under the same conditions.
Nineteen weeks after beginning antibiotic treatment, the rabbits were euthanized. After euthanasia, hearts were examined histologically and by immunofluorescence. Animal serum samples were also examined for seropositivity to the infecting organism.

[3] = male, human, in vivo
Procedure: In another study, three dose levels of rifalazil were administered for the treatment of non-gonococcal urethritis in 170 male patients. Doses used were in this study were single-doses of 2.5, 12.5 mg and 25 mg. Males were between 18-45 years of age with signs or symptoms of urethritis, including urethral discharge.

[4] = 300 mg, 3 days, 2 years of follow-up; cited from earlier work
C. pneumoniae [5] = conditions: cited from earlier work

| SMILES | t1/2 [1] | Plaque Area Stenosis (%) (C. pneumoniae [2]) | incidence of AEs considered possibly related to study drug [3] [%] | incidence of clinically significant laboratory abnormalities [3] [%] | morbidity or mortality in PAOD patients [4] | prevention of progression of lower limb atherosclerosis (C. pneumoniae [5]; daily for 28 days, C. pneumoniae seropositive men, almost 3 years) | number of invasive revascularization procedures (C. pneumoniae [5]; daily for 28 days) | soft plaque components in carotid arteries (C. pneumoniae [5]; over a 6-month period) |
| --- | --- | --- | --- | --- | --- | --- | --- | --- |
| CC[C@H]1OC(=O)[C@H](C)[C@@H](O[C@H]2C[C@@](C)(OC)[C@@H](O)[C@H](C)O2)[C@H](C)[C@@H](O[C@@H]2O[C@H](C)C[C@H](N(C)C)[C@H]2O)[C@](C)(O)C[C@@H](C)CN(C)[C@H](C)[C@@H](O)[C@]1(C)O [azithromycin] | 65 h | 30.2 | 24 | 21 | no significant reduction of morbidity or mortality |  |  |  |
| CC[C@H]1OC(=O)[C@H](C)[C@@H](O[C@H]2C[C@@](C)(OC)[C@@H](O)[C@H](C)O2)[C@H](C)[C@@H](O[C@@H]2O[C@H](C)C[C@H](N(C)C)[C@H]2O)[C@](C)(O)C[C@@H](C)/C(=N\OCOCCOC)[C@H](C)[C@@H](O)[C@]1(C)O [roxithromycin] |  |  |  |  |  | statistically significant benefit | reduced the number of invasive revascularization procedures | statistically significant reduction of soft plaque components |
| CN[C@H]1C(=O)N[C@@H]2Cc3ccc(cc3)Oc3cc4cc(c3O[C@@H]3O[C@H](C(=O)O)[C@@H](O)[C@H](O)[C@H]3NC(=O)CCCCCCCCC(C)C)Oc3ccc(cc3Cl)[C@@H](O)[C@@H]3NC(=O)[C@H](NC(=O)[C@@H]4NC(=O)[C@@H](NC2=O)c2cc(cc(O)c2Cl)Oc2cc1ccc2O)c1ccc(O)c(c1)-c1c(O[C@H]2O[C@H](CO)[C@@H](O)[C@H](O)[C@@H]2O)cc(O)cc1[C@@H](C(=O)NCCCN(C)C)NC3=O [Dalbavancin] | approximately 180 hours |  |  |  |  |  |  |  |
